According to patent publication US12441754B2, “Galactoside inhibitor of galectins” (GALECTO BIOTECH AB, priority 2019, dated 2025):
Like-named read-outs stand apart in the source and are kept apart here.

Experiments:
Galectin-1 = Galectin-1 (Homo sapiens, UniProt P09382); assay: fluorescence anisotropy assay, compound as inhibitor of galectin / fluorescein tagged saccharide probe interaction; format: binding
Text: (§1) Anal. Biochem. 334: 36-47, (Sörme et al., 2004) and Monovalent interactions of Galectin-1 By Salomonsson, Emma; Larumbe, Amaia; Tejler, Johan; Tullberg, Erik; Rydberg, Hanna; Sundin, Anders; Khabut, Areej; Frejd, Torbjorn; Lobsanov, Yuri D.; Rini, James M.; et al, From Biochemistry (2010), 49(44), 9518-9532, (Salomonsson et al., 2010).

Galectin-3 = Galectin-3 (Homo sapiens, UniProt P17931); assay: as above; format: binding
Galectin-3, sequence (P17931 whole entry): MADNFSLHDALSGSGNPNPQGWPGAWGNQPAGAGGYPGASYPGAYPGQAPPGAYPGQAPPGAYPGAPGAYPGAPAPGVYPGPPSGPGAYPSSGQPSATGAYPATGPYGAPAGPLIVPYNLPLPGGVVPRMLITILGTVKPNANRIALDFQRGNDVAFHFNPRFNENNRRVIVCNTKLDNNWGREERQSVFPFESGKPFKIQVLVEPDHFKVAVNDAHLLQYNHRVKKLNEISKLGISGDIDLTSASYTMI
Text: as §1

Galectin-1, sequence (P09382 whole entry): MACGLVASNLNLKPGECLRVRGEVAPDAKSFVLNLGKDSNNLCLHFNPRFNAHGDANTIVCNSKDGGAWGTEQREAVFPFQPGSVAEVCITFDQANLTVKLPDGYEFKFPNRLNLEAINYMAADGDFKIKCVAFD

Compound	Kd (Galectin-1)	Kd (Galectin-3)	Kd (Galectin-1; read-out: Galectin-1 Kd)
CO[C@@H]1[C@@H](n2cc(-c3nccs3)nn2)[C@@H](O)[C@@H](CO)O[C@@H]1Sc1cncc(Br)c1 [Example 2, 5-Bromopyridin-3-yl 3-deoxy-2-O-methyl-3-[4-(2-thiazolyl)-1H-1,2,3-triazol-1-yl]-1-thio-α-D-galactopyranoside]	0.23 µM	3 µM	–
CO[C@@H]1[C@@H](n2cc(-c3nccs3)nn2)[C@@H](O)[C@@H](CO)O[C@@H]1Sc1cc(Br)cnc1C#N [Example 3, 5-Bromo-2-cyanopyridin-3-yl 3-deoxy-2-O-methyl-3-[4-(2-thiazolyl)-1H-1,2,3-triazol-1-yl]-1-thio-α-D-galactopyranoside]	0.11 µM	1.1 µM	–
CO[C@@H]1[C@@H](n2cc(-c3nccs3)nn2)[C@@H](O)[C@@H](CO)O[C@@H]1Sc1cc(Cl)cnc1C#N [Example 4, 5-Chloro-2-cyanopyridin-3-yl 3-deoxy-2-O-methyl-3-[4-(2-thiazolyl)-1H-1,2,3-triazol-1-yl]-1-thio-α-D-galactopyranoside]	0.11 µM	1.2 µM	–
N#Cc1ncc(Cl)cc1S[C@H]1O[C@H](CO)[C@H](O)[C@H](n2cc(-c3nccs3)nn2)[C@H]1OCc1cc(F)c(O)c(F)c1 [Example 6, 5-Chloro-2-cyanopyridin-3-yl 3-deoxy-2-O-(3,5-difluoro-4-hydroxybenzyl)-3-[4-(2-thiazolyl)-1H-1,2,3-triazol-1-yl]-1-thio-α-D-galactopyranoside]	0.096 µM	0.95 µM	–
CO[C@@H]1[C@@H](n2cc(-c3csc(O)n3)nn2)[C@@H](O)[C@@H](CO)O[C@@H]1Sc1cc(Cl)c(F)c(Cl)c1 [Example 7, 3,5-Dichloro-4-fluorophenyl 3-deoxy-3-[4-(2-hydroxythiazol-4-yl)-1H-1,2,3-triazol-1-yl]-2-O-methyl-1-thio-α-D-galactopyranoside]	–	2.6 µM	0.029 µM
CC(C)O[C@@H]1[C@@H](n2cc(-c3csc(O)n3)nn2)[C@@H](O)[C@@H](CO)O[C@@H]1Sc1ccc(Cl)c(Cl)c1 [Example 8, 3,4-Dichlorophenyl 3-deoxy-3-[4-(2-hydroxythiazol-4-yl)-1H-1,2,3-triazol-1-yl]-2-O-isopropyl-1-thio-α-D-galactopyranoside]	0.1 µM	> 100 µM	–
CO[C@@H]1[C@@H](n2cc(-c3csc(O)n3)nn2)[C@@H](O)[C@@H](CO)O[C@@H]1Sc1ccc(Cl)c(Cl)c1 [Example 9, 3,4-Dichlorophenyl 3-deoxy-3-[4-(2-hydroxythiazol-4-yl)-1H-1,2,3-triazol-1-yl]-2-O-methyl-1-thio-α-D-galactopyranoside]	–	4.6 µM	0.041 µM
OC[C@H]1O[C@H](Sc2ccc(Cl)c(Cl)c2)C[C@@H](n2cc(-c3csc(O)n3)nn2)[C@H]1O [Example 10, 3,4-Dichlorophenyl 2,3-dideoxy-3-[4-(2-hydroxythiazol-4-yl)-1H-1,2,3-triazol-1-yl]-1-thio-α-D-galactopyranoside]	0.082 µM	5.3 µM	–
CO[C@@H]1[C@@H](n2cc(-c3nc(Cl)cs3)nn2)[C@@H](O)[C@@H](CO)O[C@@H]1Sc1cnc(C#N)c(Br)c1 [Example 12, 3-Bromo-2-cyanopyridin-5-yl 3-[4-(4-chlorothiazol-2-yl)-1H-1,2,3-triazol-1-yl]-3-deoxy-2-O-methyl-1-thio-α-D-galactopyranoside]	0.024 µM	0.27 µM	–
CO[C@@H]1[C@@H](n2cc(-c3nc(Cl)cs3)nn2)[C@@H](O)[C@@H](CO)O[C@@H]1Sc1cc(Cl)cnc1C#N [Example 13, 5-Chloro-2-cyanopyridin-3-yl 3-[4-(4-chlorothiazol-2-yl)-1H-1,2,3-triazol-1-yl]-3-deoxy-2-O-methyl-1-thio-α-D-galactopyranoside]	0.025 µM	0.16 µM	–
CO[C@@H]1[C@@H](n2cc(-c3csc(N)n3)nn2)[C@@H](O)[C@@H](CO)O[C@@H]1Sc1cc(Cl)c(F)c(Cl)c1 [Example 16, 3,5-Dichloro-4-fluorophenyl 3-[4-(2-aminothiazol-4-yl)-1H-1,2,3-triazol-1-yl]-3-deoxy-2-O-methyl-1-thio-α-D-galactopyranoside]	–	8.4 µM	0.069 µM
CO[C@@H]1[C@@H](n2cc(-c3csc(N)n3)nn2)[C@@H](O)[C@@H](CO)O[C@@H]1Sc1cc(Cl)cnc1C#N [Example 17, 5-Chloro-2-cyanopyridin-3-yl 3-[4-(2-aminothiazol-4-yl)-1H-1,2,3-triazol-1-yl]-3-deoxy-2-O-methyl-1-thio-α-D-galactopyranoside]	0.033 µM	1.9 µM	–
CO[C@@H]1[C@@H](n2cc(-c3csc(N)n3)nn2)[C@@H](O)[C@@H](CO)O[C@@H]1Sc1cc(Cl)cnc1C [Example 18, 5-Chloro-2-methylpyridin-3-yl 3-[4-(2-aminothiazol-4-yl)-1H-1,2,3-triazol-1-yl]-3-deoxy-2-O-methyl-1-thio-α-D-galactopyranoside]	0.12 µM	5.4 µM	–
N#Cc1ncc(Cl)cc1S[C@H]1O[C@H](CO)[C@H](O)[C@H](n2cc(-c3csc(N)n3)nn2)[C@H]1OCc1ccccc1 [Example 19, 5-Chloro-2-cyanopyridin-3-yl 3-[4-(2-aminothiazol-4-yl)-1H-1,2,3-triazol-1-yl]-2-O-benzyl-3-deoxy-1-thio-α-D-galactopyranoside]	0.079 µM	1.8 µM	–
CCO[C@@H]1[C@@H](n2cc(-c3csc(N)n3)nn2)[C@@H](O)[C@@H](CO)O[C@@H]1Sc1cc(Cl)cnc1C [Example 20, 5-Chloro-2-methylpyridin-3-yl 3-[4-(2-aminothiazol-4-yl)-1H-1,2,3-triazol-1-yl]-3-deoxy-2-O-ethyl-1-thio-α-D-galactopyranoside]	0.067 µM	6.2 µM	–
CO[C@@H]1[C@@H](n2cc(-c3csc(N)n3)nn2)[C@@H](O)[C@@H](CO)O[C@@H]1Sc1cc(Cl)cnc1-c1cccnc1 [Example 23, 5-Chloro-2-(pyridin-3-yl)pyridin-3-yl 3-[4-(2-aminothiazol-4-yl)-1H-1,2,3-triazol-1-yl]-3-deoxy-2-O-methyl-1-thio-α-D-galactopyranoside]	0.03 µM	4.2 µM	–
CO[C@@H]1[C@@H](n2cc(-c3csc(N)n3)nn2)[C@@H](O)[C@@H](CO)O[C@@H]1Sc1cc(Cl)cnc1C1=CCNCC1 [Example 24, 5-Chloro-2-(1,2,3,6-tetrahydropyridin-4-yl)pyridin-3-yl 3-[4-(2-aminothiazol-4-yl)-1H-1,2,3-triazol-1-yl]-3-deoxy-2-O-methyl-1-thio-α-D-galactopyranoside]	0.15 µM	3.3 µM	–

Further compounds by falling Kd (Galectin-1), results first:

Kd (Galectin-1)	Kd (Galectin-3)	Compound	Kd (Galectin-1; read-out: Galectin-1 Kd)
0.19 µM	1.8 µM	N#Cc1ncc(Cl)cc1S[C@H]1O[C@H](CO)[C@H](O)[C@H](n2cc(-c3nccs3)nn2)[C@H]1OCc1ccccc1 [Example 5, 5-Chloro-2-cyanopyridin-3-yl 2-O-benzyl-3-deoxy-3-[4-(2-thiazolyl)-1H-1,2,3-triazol-1-yl]-1-thio-α-D-galactopyranoside]	–
0.056 µM	0.2 µM	CO[C@@H]1[C@@H](n2cc(-c3csc(Cl)n3)nn2)[C@@H](O)[C@@H](CO)O[C@@H]1Sc1cc(Cl)cnc1C#N [Example 15, 5-Chloro-2-cyanopyridin-3-yl 3-[4-(2-chlorothiazol-4-yl)-1H-1,2,3-triazol-1-yl]-3-deoxy-2-O-methyl-1-thio-α-D-galactopyranoside]	–
0.045 µM	2.3 µM	CO[C@@H]1[C@@H](n2cc(-c3csc(N)n3)nn2)[C@@H](O)[C@@H](CO)O[C@@H]1Sc1cc(Cl)cnc1-c1cncnc1 [Example 21, 5-Chloro-2-(pyrimidin-5-yl)pyridin-3-yl 3-[4-(2-aminothiazol-4-yl)-1H-1,2,3-triazol-1-yl]-3-deoxy-2-O-methyl-1-thio-α-D-galactopyranoside]	–
0.03 µM	0.37 µM	CO[C@@H]1[C@@H](n2cc(-c3nc(Cl)cs3)nn2)[C@@H](O)[C@@H](CO)O[C@@H]1Sc1cnc(C#N)c(Cl)c1 [Example 14, 3-Chloro-2-cyanopyridin-5-yl 3-[4-(4-chlorothiazol-2-yl)-1H-1,2,3-triazol-1-yl]-3-deoxy-2-O-methyl-1-thio-α-D-galactopyranoside]	–
0.026 µM	4.1 µM	CO[C@@H]1[C@@H](n2cc(-c3csc(N)n3)nn2)[C@@H](O)[C@@H](CO)O[C@@H]1Sc1cc(Cl)cnc1-c1ccncc1 [Example 22, 5-Chloro-2-(pyridin-4-yl)pyridin-3-yl 3-[4-(2-aminothiazol-4-yl)-1H-1,2,3-triazol-1-yl]-3-deoxy-2-O-methyl-1-thio-α-D-galactopyranoside]	–
0.024 µM	0.74 µM	N#Cc1ncc(Cl)cc1S[C@H]1O[C@H](CO)[C@H](O)[C@H](n2cc(-c3csc(N)n3)nn2)[C@H]1OCc1cc(F)c(O)c(F)c1 [Example 25, 5-Chloro-2-cyanopyridin-3-yl 3-[4-(2-aminothiazol-4-yl)-1H-1,2,3-triazol-1-yl]-3-deoxy-2-O-(3,5-difluoro-4-hydroxybenzyl)-1-thio-α-D-galactopyranoside]	–
0.019 µM	0.17 µM	CO[C@@H]1[C@@H](n2cc(-c3nc(Cl)cs3)nn2)[C@@H](O)[C@@H](CO)O[C@@H]1Sc1cc(Br)cnc1C#N [Example 11, 5-Bromo-2-cyanopyridin-3-yl 3-[4-(4-chlorothiazol-2-yl)-1H-1,2,3-triazol-1-yl]-3-deoxy-2-O-methyl-1-thio-α-D-galactopyranoside]	–
0.017 µM	1.7 µM	CO[C@@H]1[C@@H](n2cc(-c3csc(N)n3)nn2)[C@@H](O)[C@@H](CO)O[C@@H]1Sc1cc(Cl)cnc1-c1ccccn1 [Example 26, 5-Chloro-2-(pyridin-2-yl)pyridin-3-yl 3-[4-(2-aminothiazol-4-yl)-1H-1,2,3-triazol-1-yl]-3-deoxy-2-O-methyl-1-thio-α-D-galactopyranoside]	–
